Experiments:
[1] = biological target: T1, Peroxisome proliferator-activated receptor gamma (Homo sapiens) (UniProt P37231); assay: Inhibition of PPRAgamma in HEK293 cells assessed as […] in FABP4 mRNA expression at 100 nM relative to control; type: cell-based
T1 sequence (whole entry): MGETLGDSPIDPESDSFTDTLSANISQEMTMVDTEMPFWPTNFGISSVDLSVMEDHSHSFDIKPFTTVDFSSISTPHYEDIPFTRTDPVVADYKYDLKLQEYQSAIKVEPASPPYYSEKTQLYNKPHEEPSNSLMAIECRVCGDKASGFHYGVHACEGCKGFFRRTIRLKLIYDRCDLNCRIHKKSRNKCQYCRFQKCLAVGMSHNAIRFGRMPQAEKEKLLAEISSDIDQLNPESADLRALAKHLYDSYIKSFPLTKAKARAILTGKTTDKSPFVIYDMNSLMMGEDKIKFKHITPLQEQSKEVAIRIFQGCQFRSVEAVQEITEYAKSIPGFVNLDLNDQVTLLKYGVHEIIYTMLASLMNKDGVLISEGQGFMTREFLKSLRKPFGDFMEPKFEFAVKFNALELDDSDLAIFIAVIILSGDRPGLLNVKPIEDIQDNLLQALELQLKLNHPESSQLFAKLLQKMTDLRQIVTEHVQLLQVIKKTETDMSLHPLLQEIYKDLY

[2] = Induction of ANGPTL4 mRNA expression in human HT1197 cells

With `N#Cc1ccc(Cl)c(-c2cc(=O)c3c(F)cc(F)cc3[nH]2)c1` the inhibition [1] was 95%.
`N#Cc1cc(-c2cc(=O)c3c(F)cc(F)cc3[nH]2)c(Cl)cn1` showed an EC50 [2] of 0.14 nM.
